# Reference: patent US20140004530A1, “METHOD FOR THE EVALUATION OF COMPOUND-TARGET INTERACTIONS ACROSS SPECIES” (CELLZOME GMBH, priority 2010, published 2014)
# How the values were obtained:
# [1] = target: T1, PIK4Cb (Homo sapiens, UniProt Q9UBF8); test: Competition binding to affinity matrix in mixed human/mouse cell lysate, quantitative MS of species-specific peptides; conditions: HL-60 + RAW 264.7 mixed lysate
# T1 construct: Cell lysates from a human (HL60) and a mouse cell line (Raw 264.7) were prepared; endogenous in cells; host or cells: HL60
# Description: (§1) Cell lysates from a human (HL60) and a mouse cell line (Raw 264.7) were prepared and subsequently mixed at a 1:1 ratio. Compound 1 was added at various concentrations (3 μM, 0.75 μM, 0.047 μM, 0.012 μM, plus DMSO solvent control) to aliquots of this mixed cell lysate and allowed to bind to the proteins in the lysate. Subsequently, the affinity matrix (beads with immobilized ligands) was added to each aliquot to capture proteins that were not interacting with compound 1. The generation of the affinity matrix (beads with immobilized ligands) was described in WO 2009/098021.
# (§2) After the incubation time of 60 minutes the beads with captured proteins were separated from the lysate and bead bound proteins were eluted in SDS sample buffer and subsequently separated by SDS-Polyacrylamide gel electrophoresis. Electrophoresis was stopped after 20 minutes and the gel was stained with colloidal Coomassie. The stained area of each gel lane was cut out and subjected to in-gel proteolytic digestion with trypsin. Peptides originating from the different aliquots treated with compound 1 and the DMSO solvent control were labeled with isobaric tagging reagents (Tandem mass tag (TMT®) reagents, Thermofisher). The TMT® reagents are a set of multiplexed, amine-specific, stable isotope reagents that can label peptides in up to six different biological samples enabling simultaneous identification and quantitation of peptides. The combined samples were analyzed with a nano-flow liquid chromatography system coupled online to a tandem mass spectrometer (LC-MS/MS) experiment followed by reporter ion quantitation in the MS/MS spectra (Ross et al., 2004. Mol. Cell. Proteomics 3(12):1154-1169; Dayon et al., 2008. Anal. Chem. 80(8):2921-2931; Thompson et al., 2003. Anal. Chem. 75(8):1895-1904). Further experimental protocols can be found in WO2006/134056 and a previous publication (Bantscheff et al., 2007. Nature Biotechnology 25, 1035-1044).
# (§3) Cells were homogenized in a Potter S homogenizer in lysis buffer: 50 mM Tris-HCl, 0.8% NP40, 5% glycerol, 150 mM NaCl, 1.5 mM MgCl2, 25 mM NaF, 1 mM sodium vanadate, 1 mM DTT, pH 7.5. One complete EDTA-free tablet (protease inhibitor cocktail, Roche Diagnostics, 1 873 580) per 25 ml buffer was added. The material was dounced 20 times using a mechanized POTTER S, transferred to 50 ml falcon tubes, incubated for 30 minutes rotating at 4° C. and spun down for 10 minutes at 20,000×g at 4° C. (10,000 rpm in Sorvall SLA600, precooled). The supernatant was transferred to an ultracentrifuge (UZ)-polycarbonate tube (Beckmann, 355654) and spun for 1 hour at 145.000×g at 4° C. (40.000 rpm in Ti50.2, pre-cooled). The supernatant was transferred again to a fresh 50 ml falcon tube, the protein concentration was determined by a Bradford assay (BioRad) and samples containing 5 mg of protein per aliquot were prepared. The samples were immediately used for experiments or frozen in liquid nitrogen and stored frozen at −80° C. Cell extracts from human HL60 cells and mouse raw 264.7 cells were mixed in a one to one (1:1) ratio.
# (§4) Sepharose®-beads with the immobilized ligands (35 μl beads per aliquot) were equilibrated in lysis buffer and incubated with a cell lysate sample containing 5 mg of protein on an end-over-end shaker (Roto Shake Genie, Scientific Industries Inc.) for 60 minutes at 4° C. Beads were collected, transferred to Mobicol-columns (MoBiTech 10055) and washed with 10 ml lysis buffer containing 0.4% NP40 detergent, followed by 5 ml lysis buffer containing 0.2% detergent. To elute bound proteins, 60 μl 2× SDS sample buffer was added to the column. The column was incubated for 30 minutes at 4° C. and the eluate was transferred to a siliconized microfuge tube by centrifugation. Proteins were then alkylated with 108 mM iodoacetamid. Proteins were then separated by SDS-Polyacrylamide electrophoresis (SDS-PAGE). Suitable gel bands were cut out and subjected to in-gel proteolytic digestion with trypsin. […]
# [2] = target: T2, PIK3Cg (PI3Kγ) (Mus musculus, UniProt Q9JHG7); test: as above; conditions: for IC50: HL-60 + RAW 264.7 mixed lysate
# T2 construct: Cell lysates from a human (HL60) and a mouse cell line (Raw 264.7) were prepared; endogenous in cells; host or cells: RAW264.7
# T2 sequence (Q9JHG7 whole entry): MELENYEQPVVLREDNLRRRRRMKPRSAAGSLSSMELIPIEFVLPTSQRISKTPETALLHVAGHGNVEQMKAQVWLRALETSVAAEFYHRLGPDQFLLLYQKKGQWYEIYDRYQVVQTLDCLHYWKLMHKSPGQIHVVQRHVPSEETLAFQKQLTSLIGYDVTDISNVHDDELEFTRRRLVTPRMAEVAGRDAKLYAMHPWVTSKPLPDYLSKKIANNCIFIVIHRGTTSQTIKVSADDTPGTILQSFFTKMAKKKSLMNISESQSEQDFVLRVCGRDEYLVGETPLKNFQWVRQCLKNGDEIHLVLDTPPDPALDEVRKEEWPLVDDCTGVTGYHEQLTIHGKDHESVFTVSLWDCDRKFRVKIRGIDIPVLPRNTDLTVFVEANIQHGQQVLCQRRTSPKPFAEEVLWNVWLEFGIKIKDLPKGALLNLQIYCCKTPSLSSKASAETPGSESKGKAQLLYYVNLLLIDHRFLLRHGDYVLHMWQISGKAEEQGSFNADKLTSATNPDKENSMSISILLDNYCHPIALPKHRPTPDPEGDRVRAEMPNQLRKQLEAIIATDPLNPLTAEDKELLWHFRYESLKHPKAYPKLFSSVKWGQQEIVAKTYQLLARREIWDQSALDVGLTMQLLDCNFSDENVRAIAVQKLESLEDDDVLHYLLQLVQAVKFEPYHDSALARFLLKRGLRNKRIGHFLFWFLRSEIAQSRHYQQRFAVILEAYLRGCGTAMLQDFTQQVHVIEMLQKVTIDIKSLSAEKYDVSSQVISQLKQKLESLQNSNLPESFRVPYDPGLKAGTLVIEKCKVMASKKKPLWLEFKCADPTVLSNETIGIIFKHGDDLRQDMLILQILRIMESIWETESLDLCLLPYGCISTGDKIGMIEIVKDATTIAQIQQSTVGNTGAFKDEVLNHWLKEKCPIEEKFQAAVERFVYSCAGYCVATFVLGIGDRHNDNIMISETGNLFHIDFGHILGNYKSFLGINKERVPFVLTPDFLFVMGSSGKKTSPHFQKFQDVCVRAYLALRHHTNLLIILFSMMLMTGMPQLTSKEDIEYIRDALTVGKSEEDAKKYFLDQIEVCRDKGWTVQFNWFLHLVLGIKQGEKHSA
# Description: as §1, §2, §3, §4
# [3] = target: T3, PIK4Ca (Homo sapiens, UniProt P42356); test: as above; conditions: HL-60 + RAW 264.7 mixed lysate
# T3 construct: Cell lysates from a human (HL60) and a mouse cell line (Raw 264.7) were prepared; endogenous in cells; host or cells: HL60
# Description: as §1, §2, §3, §4
# [4] = target: T4, PIK3Cg (PI3Kγ) (Homo sapiens, UniProt P48736); test: as above; conditions: for IC50: HL-60 + RAW 264.7 mixed lysate
# T4 construct: Cell lysates from a human (HL60) and a mouse cell line (Raw 264.7) were prepared; endogenous in cells; host or cells: HL60
# T4 sequence (P48736 whole entry): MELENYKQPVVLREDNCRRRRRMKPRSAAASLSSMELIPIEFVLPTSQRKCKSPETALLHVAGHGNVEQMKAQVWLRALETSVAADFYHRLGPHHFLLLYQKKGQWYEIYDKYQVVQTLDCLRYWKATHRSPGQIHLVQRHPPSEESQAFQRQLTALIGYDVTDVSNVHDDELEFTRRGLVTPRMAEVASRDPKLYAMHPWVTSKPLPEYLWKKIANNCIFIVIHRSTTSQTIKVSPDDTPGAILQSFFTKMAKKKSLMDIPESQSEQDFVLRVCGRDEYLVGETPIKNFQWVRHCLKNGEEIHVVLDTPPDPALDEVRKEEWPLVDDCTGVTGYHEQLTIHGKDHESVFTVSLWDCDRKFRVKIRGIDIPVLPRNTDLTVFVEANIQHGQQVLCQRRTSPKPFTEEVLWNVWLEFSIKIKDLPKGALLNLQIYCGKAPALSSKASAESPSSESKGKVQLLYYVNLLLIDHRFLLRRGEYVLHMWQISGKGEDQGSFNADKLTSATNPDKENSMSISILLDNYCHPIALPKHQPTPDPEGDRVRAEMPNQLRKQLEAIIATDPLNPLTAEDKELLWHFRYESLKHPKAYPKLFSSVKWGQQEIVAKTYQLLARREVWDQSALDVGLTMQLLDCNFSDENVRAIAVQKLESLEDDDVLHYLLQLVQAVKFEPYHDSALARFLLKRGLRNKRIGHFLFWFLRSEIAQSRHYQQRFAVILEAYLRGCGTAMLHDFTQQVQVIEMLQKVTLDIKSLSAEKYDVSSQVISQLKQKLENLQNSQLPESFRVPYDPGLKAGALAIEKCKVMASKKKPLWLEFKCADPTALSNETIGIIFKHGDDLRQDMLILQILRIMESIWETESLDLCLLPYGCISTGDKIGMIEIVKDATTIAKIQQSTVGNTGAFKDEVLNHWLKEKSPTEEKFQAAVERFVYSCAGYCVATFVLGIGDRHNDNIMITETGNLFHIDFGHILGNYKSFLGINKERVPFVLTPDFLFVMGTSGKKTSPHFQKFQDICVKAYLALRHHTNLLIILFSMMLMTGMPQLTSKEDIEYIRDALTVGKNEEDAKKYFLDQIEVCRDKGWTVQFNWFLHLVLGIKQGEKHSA
# Description: as §1, §2, §3, §4
# [5] = target: T5, PIK3Cd (PI3Kδ) (Homo sapiens, UniProt O00329); test: as above; conditions: for IC50: HL-60 + RAW 264.7 mixed lysate
# T5 construct: Cell lysates from a human (HL60) and a mouse cell line (Raw 264.7) were prepared; endogenous in cells; host or cells: HL60
# T5 sequence (O00329 whole entry): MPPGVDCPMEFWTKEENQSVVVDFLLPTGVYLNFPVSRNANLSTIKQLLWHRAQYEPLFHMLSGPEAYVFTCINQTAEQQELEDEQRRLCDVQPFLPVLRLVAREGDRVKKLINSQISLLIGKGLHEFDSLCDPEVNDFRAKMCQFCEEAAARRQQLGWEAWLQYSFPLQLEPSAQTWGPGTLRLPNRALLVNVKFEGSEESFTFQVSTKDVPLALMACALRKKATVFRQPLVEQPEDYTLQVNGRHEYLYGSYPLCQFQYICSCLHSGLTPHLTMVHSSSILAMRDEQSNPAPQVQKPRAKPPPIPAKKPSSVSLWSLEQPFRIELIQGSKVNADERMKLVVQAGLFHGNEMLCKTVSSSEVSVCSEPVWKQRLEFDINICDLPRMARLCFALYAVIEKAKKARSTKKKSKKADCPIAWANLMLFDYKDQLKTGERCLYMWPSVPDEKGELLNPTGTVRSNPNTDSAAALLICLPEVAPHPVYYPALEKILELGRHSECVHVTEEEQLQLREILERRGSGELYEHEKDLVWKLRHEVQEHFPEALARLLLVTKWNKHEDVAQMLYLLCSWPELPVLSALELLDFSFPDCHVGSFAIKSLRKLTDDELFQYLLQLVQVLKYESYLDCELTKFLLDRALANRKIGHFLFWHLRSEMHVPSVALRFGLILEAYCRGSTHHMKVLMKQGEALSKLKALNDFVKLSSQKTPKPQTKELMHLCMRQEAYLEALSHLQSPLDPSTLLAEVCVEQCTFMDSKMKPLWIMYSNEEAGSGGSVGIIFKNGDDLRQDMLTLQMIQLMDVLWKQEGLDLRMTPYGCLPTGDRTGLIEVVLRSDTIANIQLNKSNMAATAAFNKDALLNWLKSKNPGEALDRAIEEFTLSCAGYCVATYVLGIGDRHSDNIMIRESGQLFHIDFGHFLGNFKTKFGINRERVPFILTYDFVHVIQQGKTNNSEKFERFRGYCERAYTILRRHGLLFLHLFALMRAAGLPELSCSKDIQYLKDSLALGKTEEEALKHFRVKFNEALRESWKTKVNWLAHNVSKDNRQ
# T5 sequence (P27986 whole entry partner): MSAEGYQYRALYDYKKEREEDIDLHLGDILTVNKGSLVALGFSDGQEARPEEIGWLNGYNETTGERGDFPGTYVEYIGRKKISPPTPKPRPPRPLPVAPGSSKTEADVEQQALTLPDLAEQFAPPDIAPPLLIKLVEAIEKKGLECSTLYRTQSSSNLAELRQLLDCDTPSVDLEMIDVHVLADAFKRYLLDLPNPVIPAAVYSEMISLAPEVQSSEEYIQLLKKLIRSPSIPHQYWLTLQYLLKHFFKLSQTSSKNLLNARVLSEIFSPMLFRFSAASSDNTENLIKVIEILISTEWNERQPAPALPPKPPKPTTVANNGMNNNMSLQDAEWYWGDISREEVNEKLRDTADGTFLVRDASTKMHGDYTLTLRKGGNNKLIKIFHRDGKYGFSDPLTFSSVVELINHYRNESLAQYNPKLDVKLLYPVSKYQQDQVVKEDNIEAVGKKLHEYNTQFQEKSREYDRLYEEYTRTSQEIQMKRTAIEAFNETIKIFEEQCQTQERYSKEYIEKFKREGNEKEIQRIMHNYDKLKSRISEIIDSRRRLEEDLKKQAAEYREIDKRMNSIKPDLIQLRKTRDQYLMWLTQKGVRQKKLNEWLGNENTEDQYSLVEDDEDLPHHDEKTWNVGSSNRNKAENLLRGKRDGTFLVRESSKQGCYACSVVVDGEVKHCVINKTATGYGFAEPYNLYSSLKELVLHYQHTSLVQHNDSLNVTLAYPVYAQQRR
# Description: as §1, §2, §3, §4
# [6] = target: T6, PIK3Cb (PI3Kbeta) (Homo sapiens, UniProt P42338); test: as above; conditions: for IC50: HL-60 + RAW 264.7 mixed lysate
# T6 construct: Cell lysates from a human (HL60) and a mouse cell line (Raw 264.7) were prepared; endogenous in cells; host or cells: HL60
# T6 sequence (P42338 whole entry): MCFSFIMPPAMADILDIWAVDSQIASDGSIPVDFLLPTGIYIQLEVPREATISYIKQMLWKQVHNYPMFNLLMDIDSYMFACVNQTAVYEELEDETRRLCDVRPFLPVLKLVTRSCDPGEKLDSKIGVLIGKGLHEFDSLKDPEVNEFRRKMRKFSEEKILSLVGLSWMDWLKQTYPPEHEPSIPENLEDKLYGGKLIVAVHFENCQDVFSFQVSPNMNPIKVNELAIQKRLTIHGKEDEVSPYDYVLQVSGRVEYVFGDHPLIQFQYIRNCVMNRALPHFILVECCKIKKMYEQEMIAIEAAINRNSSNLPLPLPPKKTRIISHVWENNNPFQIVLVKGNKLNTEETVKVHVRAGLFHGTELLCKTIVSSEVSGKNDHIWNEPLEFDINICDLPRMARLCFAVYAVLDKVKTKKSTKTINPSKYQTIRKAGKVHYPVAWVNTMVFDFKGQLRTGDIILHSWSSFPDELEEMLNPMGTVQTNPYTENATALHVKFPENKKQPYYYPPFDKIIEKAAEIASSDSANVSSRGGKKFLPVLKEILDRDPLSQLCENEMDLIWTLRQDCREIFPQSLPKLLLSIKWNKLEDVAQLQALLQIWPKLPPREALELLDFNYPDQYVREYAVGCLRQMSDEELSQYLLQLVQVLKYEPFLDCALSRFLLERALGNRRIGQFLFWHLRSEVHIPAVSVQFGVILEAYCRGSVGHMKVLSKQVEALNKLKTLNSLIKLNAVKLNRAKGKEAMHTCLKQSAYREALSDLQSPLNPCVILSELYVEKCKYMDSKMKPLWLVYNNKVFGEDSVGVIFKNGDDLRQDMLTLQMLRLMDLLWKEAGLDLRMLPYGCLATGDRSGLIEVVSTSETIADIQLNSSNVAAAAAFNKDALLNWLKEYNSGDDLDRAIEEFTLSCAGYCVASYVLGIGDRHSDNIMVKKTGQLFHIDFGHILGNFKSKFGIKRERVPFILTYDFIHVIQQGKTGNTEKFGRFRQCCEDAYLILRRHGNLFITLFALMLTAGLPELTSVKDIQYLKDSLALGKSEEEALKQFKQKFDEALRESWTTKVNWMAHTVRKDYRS
# T6 sequence (P27986 whole entry partner): as the sequence (P27986 whole entry partner) above
# Description: as §1, §2, §3, §4
# [7] = target: T7, PIK3R4 (Homo sapiens, UniProt Q99570); test: as above; conditions: Experiment 1 (human/mouse 1); HL-60 + RAW 264.7 mixed lysate
# T7 construct: Cell lysates from a human (HL60) and a mouse cell line (Raw 264.7) were prepared; endogenous in cells; host or cells: HL60
# Description: as §1, §2, §3, §4
# [8] = target: T8, PIK3Cb (PI3Kbeta) (Mus musculus, UniProt Q8BTI9); test: as above; conditions: HL-60 + RAW 264.7 mixed lysate
# T8 construct: Cell lysates from a human (HL60) and a mouse cell line (Raw 264.7) were prepared; endogenous in cells; host or cells: RAW264.7
# Description: as §1, §2, §3, §4
# [9] = target: T9, PIK3Ca (Homo sapiens, UniProt P42336); test: as above; conditions: for IC50: HL-60 + RAW 264.7 mixed lysate
# T9 construct: Cell lysates from a human (HL60) and a mouse cell line (Raw 264.7) were prepared; endogenous in cells; host or cells: HL60
# Description: as §1, §2, §3, §4
# [10] = target: T10, PIK3C3 (Homo sapiens, UniProt Q8NEB9); test: as above; conditions: Experiment 1 (human/mouse 1); HL-60 + RAW 264.7 mixed lysate
# T10 construct: Cell lysates from a human (HL60) and a mouse cell line (Raw 264.7) were prepared; endogenous in cells; host or cells: HL60
# Description: as §1, §2, §3, §4
# [11] = target: T11, PIK3Cd (PI3Kδ) (Mus musculus, UniProt O35904); test: as above; conditions: HL-60 + RAW 264.7 mixed lysate
# T11 construct: Cell lysates from a human (HL60) and a mouse cell line (Raw 264.7) were prepared; endogenous in cells; host or cells: RAW264.7
# Description: as §1, §2, §3, §4
# [12] = target: T12, PI3Kγ (Mus musculus, UniProt Q9JHG7); test: Competition binding profile with the affinity matrix in mixed extracts of human and rodent cell lines; conditions: mixed extracts of human (Jurkat) and mouse RAW264.7 cells
# T12 construct: acquired in mixed extracts of human, mouse and rat cell lines; endogenous in cells
# Description: (§5) Since compound efficacy and toxicity are evaluated in laboratory animals, it is important to determine its potency and selectivity in the relevant species. In order to minimize inter-assay variation, we used a mass spectrometric targeted data acquisition approach (Savitski et al., 2010. J. Am. Soc. Mass. Spectrom. 21(10):1668-1679) based on species specific proteotypic peptides (FIG. 7) and mixed cell lysates. Competition binding profiles of compound 2 with the affinity matrix were acquired in mixed extracts of human, mouse and rat cell lines.
# (§6) Proteomics-based inhibitor profiling. Affinity profiling assays were performed as described previously ([…]). Derivatized sepharose® beads (35 μl beads per sample) were equilibrated in lysis buffer and incubated with 1 ml (5 mg protein) cell lysate, which had been preincubated with test compound or vehicle for 45 min, on an end-over-end shaker for 1 hour. Incubation was done at 4° C. for all compounds. Beads were transferred to disposable columns (MoBiTec), washed with lysis buffer containing 0.2% NP-40 and eluted with 50 μl 2× SDS sample buffer. Proteins were alkylated with […] iodoacetamide for 30 minutes, separated on 4-12% NuPAGE (Invitrogen), and stained with colloidal Coomassie.
# (§7) Sample preparation for mass spectrometry. Gels were cut into slices across the entire separation range and subjected to in-gel digestion. Peptide extracts were labeled with tandem mass tags (TMT®) (Thermo-Fisher Scientific) in 40 mM triethylammoniumbicarbonate (TEAB), pH 8.53. After quenching of the reaction with glycin labeled extracts were combined. For compound profiling experiments extracts from vehicle treated samples were labeled with TMT® reagent 131, and combined with extracts from compound-treated samples labeled with TMT® reagents 126-130, optionally fractionated using reversed phase chromatography at pH 12, dried and acidified prior to LC-MS/MS analysis.
# (§8) LC-MS/MS analysis. Samples were dried in vacuo and resuspended in 0.1% formic acid in water and aliquots of the sample were injected into a nano-LC system (Eksigent 1 D+) coupled to LTQ-Orbitrap mass spectrometers (Thermo-Finnigan). Peptides were separated on custom 50 cm×[…] (internal diameter) reversed-phase columns (Reprosil) at 40° C. Gradient elution was performed from 2% acetonitrile to 40% acetonitrile in 0.1% formic acid over 2-4 hours. […] Intact peptides were detected in the Orbitrap at 30.000 resolution. […]
# (§9) Creation of peptide inclusion lists. […] Subsequently for each human and mouse (or rat) protein that was of interest to the study the selected peptides were ranked according to the quality of the quantification and ease of identification inherent to these peptides (Savitski et al., 2010, J. Am. Soc. Mass. Spectrom. 21(10):1668-1679). […]
# (§10) Peptide and protein quantification. […]
# [13] = target: T13, PI3Kβ (Mus musculus, UniProt Q8BTI9); test: as above; conditions: mixed extracts of human (Jurkat) and mouse RAW264.7 cells
# T13 construct: acquired in mixed extracts of human, mouse and rat cell lines; endogenous in cells
# Description: as §5, §6, §7, §8, §9, §10
# [14] = system: PI3Kγ; test: as above; conditions: mixed extracts of human (Jurkat) and rat RBL-1 cells
# Description: as §5, §6, §7, §8, §9, §10
# [15] = target: T14, PI3Kβ (Rattus norvegicus, UniProt Q9Z1L0); test: as above; conditions: mixed extracts of human (Jurkat) and rat RBL-1 cells
# T14 construct: acquired in mixed extracts of human, mouse and rat cell lines; endogenous in cells
# Description: as §5, §6, §7, §8, §9, §10
# [16] = potency ratio across species, average of two experiments
compound,measurement,setting,value
CC(C)(C)NS(=O)(=O)c1cncc(-c2ccc3nc(N)nn3c2)c1 [compound 1],IC50,[1]; Experiment 1 (human/mouse 1),≥ 3000 nM
same,IC50,[1]; Experiment 2 (human/mouse 2),≥ 3000 nM
same,IC50,[2]; Experiment 1 (human/mouse 1),57 nM
same,IC50,[2]; Experiment 2 (human/mouse 2),71 nM
same,IC50 ratio for PIK3CD and PIK3CG (selectivity window),[2]; in mouse,23
same,IC50,[3]; Experiment 1 (human/mouse 1),≥ 3000 nM
same,IC50,[3]; Experiment 2 (human/mouse 2),≥ 3000 nM
same,IC50,[4]; Experiment 1 (human/mouse 1),22 nM
same,IC50,[4]; Experiment 2 (human/mouse 2),27 nM
same,ratio of the IC50 for PIK3CD and PIK3CG (selectivity window),[4]; in humans,48
same,"Average ratio human mouse, PIK3Cg",[4]; [16],2.61
same,IC50,[5]; Experiment 1 (human/mouse 1),1060 nM
same,IC50,[5]; Experiment 2 (human/mouse 2),1520 nM
same,"Average ratio human mouse, PIK3Cd",[5]; [16],1.0
same,IC50,[6]; Experiment 1 (human/mouse 1),136 nM
same,IC50,[6]; Experiment 2 (human/mouse 2),283 nM
same,"Average ratio human mouse, PIK3Cb",[6]; [16],0.87
same,IC50,[7],≥ 3000 nM
same,IC50,[8]; Experiment 1 (human/mouse 1),251 nM
same,IC50,[8]; Experiment 2 (human/mouse 2),162 nM
same,IC50,[9]; Experiment 1 (human/mouse 1),2370 nM
same,IC50,[9]; Experiment 2 (human/mouse 2),2600 nM
same,"Average ratio human mouse, PIK3Ca",[9]; [16],app. 1
same,IC50,[10],≥ 3000 nM
same,IC50,[11]; Experiment 1 (human/mouse 1),1310 nM
same,IC50,[11]; Experiment 2 (human/mouse 2),1290 nM
CC(C)(C)NS(=O)(=O)c1cncc(-c2cc(F)c3nc(N)nn3c2)c1 [compound 2],potency for PI3Kγ in mouse compared to human,[12],two- to four-fold lower
same,potency for PI3Kβ in mouse compared to human,[13],two- to four-fold lower
same,potency for PI3Kγ in rat compared to human,[14],two- to four-fold lower
same,potency for PI3Kβ in rat compared to human,[15],two- to four-fold lower
